Measured values: ChEMBL document CHEMBL5316338, “Discovery of Novel PTP1B Inhibitors with Once-Weekly Therapeutic Potential for Type 2 Diabetes: Design, Synthesis, and In Vitro and In Vivo Investigations of BimBH3 Peptide Analogues” (J Med Chem, 2023)
The source made the active and inactive calls. The rule behind the calls is not given here. Square brackets hold non-standard residues; d marks the D form. Peptide text beside a SMILES is read from it. * marks the point of attachment. ξ: configuration not given here. C18 diacid = O=C(O)CCCCCCCCCCCCCCCCC(=O)*; Myristoyl = CCCCCCCCCCCCCC(=O)*; ξR = N=C(N)NCCCC(N)C(=O)O

Tests used:
Mus musculus [1] = assay: Antidiabetic activity against C57BL/Ks db/db mouse assessed as redcution in fasting blood glucose level at 1 umol/kg, sc administered once a week and measured on day 15 by glucometer analysis (reference value: 27.3 +/- 2.4 […]); type: functional; conditions: dose 1 µmol/kg, time 15 day
Mus musculus [2] = assay: Antidiabetic activity against over-night fasted C57BL/ks db/db mouse assessed as suppression of increased blood glucose concentration at 1 uM/kg, sc pretreated with compound for 4 weeks followed by insulin stimulation and measured for 90 mins by insulin tolerance test; type: functional, organism-based; conditions: time 40410.0 min
Mus musculus [3] = assay: Antidiabetic activity against sc dosed C57BL/Ks db/db mouse assessed as reduction in serum insulin level at 1 umol/kg by ELISA analysis; type: functional, organism-based; conditions: dose 1.0 µmol/kg
Proteinase K = assay: Stability of compound assessed as Proteinase K (unknown origin) mediated compound degradation by measuring half-life by HPLC analysis; type: ADME
Mus musculus [4] = assay: Antidiabetic activity against C57BL/Ks db/db mouse assessed as reduction in fasting blood glucose level at 1 uM/kg, sc administered once a week for 2 weeks by glucometer analysis; type: functional, organism-based
[5] = target: T1, Tyrosine-protein phosphatase non-receptor type 1 (Homo sapiens) (UniProt P18031); assay: Inhibition of N-terminal His tagged recombinant human PTP1B expressed in Escherichia coli using pNPP as substrate assessed as substrate hydrolysis at 40 umol/L relative to control; conditions: dose 40.0 µmol/L
T1 sequence (whole entry): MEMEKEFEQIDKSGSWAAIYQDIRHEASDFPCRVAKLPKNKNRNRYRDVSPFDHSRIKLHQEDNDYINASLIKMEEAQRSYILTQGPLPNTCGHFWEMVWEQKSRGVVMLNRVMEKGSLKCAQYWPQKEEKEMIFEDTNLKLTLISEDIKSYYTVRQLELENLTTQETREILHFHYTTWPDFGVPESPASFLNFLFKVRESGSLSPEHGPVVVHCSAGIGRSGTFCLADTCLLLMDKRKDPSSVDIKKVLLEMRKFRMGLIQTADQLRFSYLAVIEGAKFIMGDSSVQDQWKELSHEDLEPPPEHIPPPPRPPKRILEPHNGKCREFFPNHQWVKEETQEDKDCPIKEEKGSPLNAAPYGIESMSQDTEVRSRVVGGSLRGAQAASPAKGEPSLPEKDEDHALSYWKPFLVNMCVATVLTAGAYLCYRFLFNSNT

Mus musculus [6] = assay: Antidiabetic activity against C57BL/Ks db/db mouse assessed as redcution in fasting blood glucose level at 1 umol/kg administered subcutaneously and measured immediately by glucometer analysis (reference value: 19.0 +/- 2.7 […]); type: functional; conditions: dose 1 µmol/kg; route sc
Mus musculus [7] = assay: Antidiabetic activity against over-night fasted C57BL/ks db/db mouse assessed as suppression of increased blood glucose concentration at 1 uM/kg, sc pretreated with compound for 4 weeks followed by oral glucose stimulation and measured upto 120 mins by oral glucose tolerance test; type: functional, organism-based; conditions: time 40440.0 min
[8] = target: T2, Tyrosine-protein phosphatase non-receptor type 2 (Homo sapiens) (UniProt P17706); assay: Inhibition of recombinant human TC-PTP (1 to 314 residues) expressed in baculovirus infected insect cells using pNPP as substrate assessed as substrate hydrolysis at 50 umol/L relative to control; conditions: Insect cell, dose 50.0 µmol/L
T2 sequence (whole entry): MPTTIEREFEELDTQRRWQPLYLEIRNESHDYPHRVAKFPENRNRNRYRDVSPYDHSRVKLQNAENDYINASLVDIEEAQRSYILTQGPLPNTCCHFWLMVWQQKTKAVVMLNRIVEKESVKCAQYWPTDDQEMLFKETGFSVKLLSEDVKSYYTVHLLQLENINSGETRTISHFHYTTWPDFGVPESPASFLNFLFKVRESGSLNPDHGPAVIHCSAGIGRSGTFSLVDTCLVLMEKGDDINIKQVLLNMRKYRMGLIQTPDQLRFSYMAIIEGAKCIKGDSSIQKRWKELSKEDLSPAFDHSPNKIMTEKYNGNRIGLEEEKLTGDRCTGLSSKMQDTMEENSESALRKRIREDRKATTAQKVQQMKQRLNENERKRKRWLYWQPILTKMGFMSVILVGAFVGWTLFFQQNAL

Mus musculus [9] = assay: Antidiabetic activity against sc dosed C57BL/Ks db/db mouse assessed as reduction in C-peptide level at 1 umol/kg by ELISA analysis; type: functional, organism-based; conditions: dose 1.0 µmol/kg
Mus musculus [10] = assay: Antidiabetic activity against sc dosed C57BL/Ks db/db mouse assessed as reduction in glucagon level at 1 umol/kg by ELISA analysis; type: functional, organism-based; conditions: dose 1.0 µmol/kg
Mus musculus [11] = assay: Antidiabetic activity against C57BL/Ks db/db mouse assessed as redcution in fasting blood glucose level at 1 umol/kg, sc administered once a week and measured on day 22 by glucometer analysis (reference value: 27.4 +/- 1.8 […]); type: functional; conditions: dose 1 µmol/kg, time 22 day
Mus musculus [12] = assay: Antidiabetic activity against C57BL/Ks db/db mouse assessed as redcution in fasting blood glucose level at 1 umol/kg, sc administered once a week and measured on day 24 by glucometer analysis (reference value: 30.2 +/- 3.2 […]); type: functional; conditions: dose 1 µmol/kg, time 24 day
[13] = Stability of compound assessed as Proteinase K (unknown origin) mediated compound degradation by measuring fold change of half-life by HPLC analysis relative to BimBH312-mer peptide; type: ADME
Carboxypeptidase A1 = target: T3, Carboxypeptidase A1 (Homo sapiens, UniProt P15085); assay: Stability of compound assessed as carboxypeptidase A (unknown origin) mediated compound degradation by measuring fold change of half-life by RP-HPLC analysis relative to BimBH312-mer peptide; type: ADME
T3 sequence (P15085 whole entry): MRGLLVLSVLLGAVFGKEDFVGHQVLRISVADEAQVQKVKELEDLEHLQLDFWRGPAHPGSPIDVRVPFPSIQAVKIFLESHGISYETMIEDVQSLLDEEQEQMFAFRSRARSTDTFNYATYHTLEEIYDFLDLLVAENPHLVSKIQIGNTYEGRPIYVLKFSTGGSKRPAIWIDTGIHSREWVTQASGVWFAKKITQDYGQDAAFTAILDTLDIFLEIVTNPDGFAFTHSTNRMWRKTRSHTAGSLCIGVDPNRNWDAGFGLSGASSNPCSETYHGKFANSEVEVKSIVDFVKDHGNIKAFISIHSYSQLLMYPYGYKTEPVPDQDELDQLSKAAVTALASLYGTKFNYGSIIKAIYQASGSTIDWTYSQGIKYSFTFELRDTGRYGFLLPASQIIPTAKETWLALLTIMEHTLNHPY

chymotrypsin = chymotrypsin (Homo sapiens, UniProt P17538+P40313+Q6GPI1+Q99895); assay: Stability of compound assessed as chymotrypsin (unknown origin) mediated compound degradation by measuring half-life by RP-HPLC analysis; type: ADME, protein assay
[14] = Toxicity in C57BL/Ks db/db mouse assessed as signs of discomfort at 1 uM/kg, sc administered for 2 weeks; type: organism-based; conditions: in vivo, 336 h
Mus musculus [15] = assay: Antidiabetic activity against C57BL/Ks db/db mouse assessed as redcution in fasting blood glucose level at 1 umol/kg, sc administered once a week and measured on day 28 by glucometer analysis (reference value: 32.4 +/- 1.1 […]); type: functional; conditions: dose 1 µmol/kg, time 28 day

Row | half-life (Proteinase K) [min] | inhibition [5] [%] | inhibition [8] [%] | fold change (FC) [13] | fold change (FC) (Carboxypeptidase A1) | half-life (chymotrypsin) [min] | Structure (SMILES) | Fasting blood glucose (Mus musculus [1]) [mmol/L] | Activity (Mus musculus [2]) | Activity (Mus musculus [3]) | Activity (Mus musculus [4]) | Fasting blood glucose level (Mus musculus [6]) [mmol/L] | Activity (Mus musculus [7]) | Activity (Mus musculus [9]) | Activity (Mus musculus [10]) | Fasting blood glucose level (Mus musculus [11]) [mmol/L] | Fasting blood glucose level (Mus musculus [12]) [mmol/L] | Activity [14] | Fasting blood glucose level (Mus musculus [15]) [mmol/L]
1 | 17.4 | > 50 | < 50 | 5.8 | 31.9 | 178 | CCCCCCCCCCCCCC(=O)N[C@H](C(=O)N[C@@H](C)C(=O)N[C@@H](CCC(N)=O)C(=O)N[C@@H](CCC(=O)O)C(=O)N[C@@H](CC(C)C)C(=O)N[C@@H](CCCNC(=N)N)C(=O)NC(CCCNC(=N)N)C(=O)N[C@H](C(=O)NCC(=O)N[C@@H](CC(=O)O)C(=O)N[C@@H](CCC(=O)O)C(=O)N[C@@H](Cc1ccccc1)C(=O)O)[C@@H](C)CC)[C@@H](C)CC (stereo partly specified) (Myristoyl-IAQELR[ξR]IGDEF-OH) | 8.3 | Active | Active | Active | 20.9 | Active | Active | Active | 11.2 | 14.2 | Non-Toxic | 15.6
2 | 7.8 | > 50 | < 50 | 2.6 | 140.9 | 12 | CC[C@H](C)[C@H](NC(=O)CCCCCCCCCCCCCCCCC(=O)O)C(=O)N[C@@H](C)C(=O)N[C@@H](CCC(N)=O)C(=O)N[C@@H](CCC(=O)O)C(=O)N[C@@H](CC(C)C)C(=O)N[C@@H](CCCNC(=N)N)C(=O)NC(CCCNC(=N)N)C(=O)N[C@H](C(=O)NCC(=O)N[C@@H](CC(=O)O)C(=O)N[C@@H](CCC(=O)O)C(=O)N[C@@H](Cc1ccccc1)C(=O)O)[C@@H](C)CC (stereo partly specified) ({C18 diacid}-IAQELR[ξR]IGDEF-OH) | 8.7 | Active | Active | Active | 19.8 | Active | Active | Active | 9.9 | 14.3 | Non-Toxic | 18.4
